Common to all, as to assay: growth of human tumour cells (NCI), 48 h
Experiment [1] concerns SK-OV-3.
In experiment [2] the test system is SF-295.
The subject of experiment [3] is LOX IMVI.
In experiment [4] the test system is K562.
Experiment [5] relates to HCT-15.
In experiment [6] the test system is OVCAR-4.
In experiment [7] the test system is NCI-H460.
The subject of experiment [8] is CAKI-1.
Experiment [9] has as its system SNB-75.
The subject of experiment [10] is NCI-H226.
Experiment [11] has as its system HCT-116.
In experiment [12] the test system is COLO 205.
In experiment [13] the test system is A498.
For experiment [14], the system named is NCI/ADR-RES.
Experiment [15] relates to MCF7.
In experiment [16] the test system is UACC-257.
Experiment [17] relates to SK-MEL-5.
Experiment [18] relates to SF-268.
The test system of experiment [19] is SK-MEL-28.
For experiment [20], the system named is SW-620.

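Dose response: 5 concentrations. Exposure: 48 h. Format: 96-well plates. Endpoint: linear interpolation; highest concentration if not reached. GI50 marks 50% less growth.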 Activity calls are given as the source filed them. Rule as the data show it: active = GI50 up to about 1.1 µM and inactive = higher.

As to `COc1cccc2c1C(=O)c1c(O)c3c(c(O)c1C2=O)C[C@@](O)(C(=O)CO)C[C@@H]3OC1CC(N2CCOCC2)C(O)C(C)O1` (some centres not stated), the GI50 is 0.00292 µM (active) in experiment [1]; 0.0025 µM (active) in experiment [2]; 0.0025 µM (active) in experiment [3]; 0.0025 µM (active) in experiment [4]; 0.00315 µM in experiment [5]; 0.0201 µM (active) in experiment [6]. The GI50 in [7] is 0.0025 µM (active); in experiment [8], 0.00948 µM (active); in experiment [9], 0.0025 µM (active); in [10] it was 0.00562 µM (active); in experiment [11] it was 0.0025 µM (active); in [12] it was 0.00325 µM (active). Further, the GI50 was 0.00315 µM (active) in [13]; 0.00252 µM (active) in experiment [14]; 0.0025 µM (active) in experiment [15]; 0.00267 µM (active) in [16]; 0.0025 µM (active) in experiment [17]; 0.0239 µM (active) in experiment [18]. In addition, the GI50 in experiment [19] was 0.0027 µM (active); in experiment [20], 0.00791 µM (active).

As to `Cc1ccc2cc3cccc(C(=O)NCCN(C)C)c3nc2c1`, the GI50 in experiment [1] is 1.57 µM (inactive); in [2] it was 0.832 µM (active); in [3], 0.818 µM (active); in experiment [4] it was 0.69 µM (active); in experiment [5], 0.955 µM; in experiment [6], 0.998 µM (active). Besides, the GI50 is 0.315 µM (active) in [7]; 0.275 µM (active) in experiment [8]; 1.33 µM (inactive) in [9]; 0.927 µM (active) in experiment [10]; 0.459 µM (active) in experiment [11]; 0.483 µM (active) in experiment [12]. Besides, the GI50 in experiment [13] was 0.419 µM (active); in experiment [14], 0.771 µM (active); in experiment [15], 0.681 µM (active); in [16], 0.946 µM (active); in [17] it was 1.32 µM (inactive); in experiment [18], 1.08 µM (active). Also, the GI50 in [19] is 1.63 µM (inactive); in [20], 0.514 µM (active).

For `C=CCC(O[Si](C)(C)C(C)(C)C)c1cc(O[Si](C)(C)C(C)(C)C)ccc1OC` (configuration not stated), the GI50 was > 62.4 µM (inactive) in experiment [1]; > 71.8 µM (inactive) in [2]; > 94.2 µM (inactive) in [3]; > 100 µM (inactive) in experiment [4]; more than 74.5 µM in experiment [5]; > 67.3 µM (inactive) in experiment [6]. The GI50 was > 70 µM (inactive) in [7]; 40.7 µM (inactive) in [8]; > 55.6 µM (inactive) in experiment [9]; > 53.6 µM (inactive) in experiment [10]; > 80.7 µM (inactive) in [11]; > 83 µM (inactive) in experiment [12]. In addition, the GI50 was 46.9 µM (inactive) in [13]; > 64.7 µM (inactive) in [14]; 51.1 µM (inactive) in experiment [15]; > 79.4 µM (inactive) in experiment [16]; > 61.1 µM (inactive) in [17]; > 85.9 µM (inactive) in experiment [18]. The values for the GI50 in experiment [19] and in experiment [20] were > 81.8 µM (inactive) and > 100 µM (inactive), respectively.

For the compound `COC(=O)CCC(C)C1CCC2C3CCC4CC5CCC4(C)C3(O5)C(Br)C(Br)C12C` (configuration not stated), the GI50 is > 100 µM (inactive) in [1]; > 100 µM (inactive) in experiment [2]; > 100 µM (inactive) in experiment [3]; > 100 µM (inactive) in experiment [4]; more than 100 µM in experiment [5]; > 100 µM (inactive) in [6]. The GI50 in [7] was > 100 µM (inactive); in experiment [8] it was > 100 µM (inactive); in experiment [9] it was > 100 µM (inactive); in experiment [10], 45.4 µM (inactive); in experiment [11], 78.9 µM (inactive); in [12], > 100 µM (inactive). For the same compound, the GI50 is > 100 µM (inactive) in experiment [13]; > 100 µM (inactive) in [14]; > 100 µM (inactive) in experiment [15]; > 100 µM (inactive) in experiment [16]; 72.9 µM (inactive) in experiment [17]; > 100 µM (inactive) in experiment [18]. Besides, the GI50 in [19] and in experiment [20] was > 100 µM (inactive) each time.

As for `COC(=O)[C@@H]1C=C[C@H](NC(C)=O)C1`, the GI50 in experiment [1] is > 100 µM (inactive); in experiment [2], > 100 µM (inactive); in [3], > 100 µM (inactive); in experiment [4], > 100 µM (inactive); in experiment [5] it was more than 100 µM; in [6], > 100 µM (inactive). Further, the GI50 in [7], in [8], in [9], in experiment [10], in experiment [11] and in [12] was > 100 µM (inactive) each time. Moreover, the GI50 in experiment [13], in experiment [14], in [15], in experiment [16], in experiment [17] and in experiment [19] was > 100 µM (inactive) each time. Moreover, the GI50 in experiment [20] is > 100 µM (inactive).

Consider `COc1nc2cccc(C(O)c3ccccc3)c2nc1-c1ccccc1` (configuration not stated), for which the GI50 in [2] is 2.08 µM (inactive); in experiment [3], 6.24 µM (inactive); in experiment [4] it was 3.81 µM (inactive); in [5], 4.43 µM; in experiment [6], 10.1 µM (inactive); in experiment [7] it was 4.14 µM (inactive). Besides, the GI50 in experiment [8] was 5.05 µM (inactive); in experiment [9], 9.12 µM (inactive); in [10] it was 3.8 µM (inactive); in experiment [11], 3.97 µM (inactive); in [12], 4.68 µM (inactive); in experiment [13] it was 2.81 µM (inactive). Also, the GI50 in [14] is 3.85 µM (inactive); in experiment [15], 4.47 µM (inactive); in experiment [16], 5.89 µM (inactive); in experiment [17], 3.56 µM (inactive); in experiment [18] it was 9.06 µM (inactive); in experiment [19], 13.4 µM (inactive). Moreover, the GI50 in experiment [20] is 3.82 µM (inactive).

For `Cc1ccc2oc3c(ccc(=O)n3C)c(=O)c2c1`, the GI50 in experiment [1] was > 100 µM (inactive); in [2], > 100 µM (inactive); in experiment [3] it was > 100 µM (inactive); in experiment [4], > 100 µM (inactive); in experiment [5], more than 100 µM; in [6] it was > 100 µM (inactive). The GI50 in experiment [7], in [8], in [9], in [10], in [11] and in experiment [12] was > 100 µM (inactive) in each case. Moreover, the GI50 in experiment [13], in experiment [14], in experiment [15], in [17], in experiment [18] and in [19] was > 100 µM (inactive) throughout. The GI50 in experiment [20] was > 100 µM (inactive).

The values above are taken from ChEMBL document CHEMBL1201862, “PubChem BioAssay data set” (2004).
